# According to patent US6689609B1, “Enhancing germination of plant somatic embryos by priming” (Cellfor Inc., priority 1999, dated 2004):
# Read-outs that look alike come from different tables or passages of the source.
# Key:
# [1] = test system: interior spruce somatic embryos; type: in vivo, Picea glauca (Moench) Voss x P. engelmannii Parry ex Engelm.; conditions: for % with hyperhydricity: in vivo
# Source text: The second study assessed the effects adding various osmotica to nutripriming solutions on subsequent germination and development performance. Mature somatic embryos of interior spruce (Picea glauca (Moench) Voss x P. engelmannii Parry ex Engelm.) genotype 23-2672 were desiccated with the HRHT treatment, and then divided into 10 groups of 160 somatic embryos per group. One group was not primed and served as the HRHT control treatment for this study. […] The nutripriming solutions and embryos were placed into 250-ml Kimax® baffled flasks. The nutripriming duration was 72 hrs at temperatures ranging between 20-23° C., and a 24-hr photoperiod of 30 μmol m^−2s^−1 photosynthetic photon flux.
# At the completion of the nutripriming step, the nutriprimed embryos from each treatment were divided into 8 groups of 20 embryos and sown by hand onto vermiculite media in Sigma polycarbonate boxes. The liquid media in these germination boxes were either 3% w/v sucrose m24GMD or m24GMD without sucrose. The experiment design was a random complete block design for each media type. Each nutripriming treatment had 4 replicates of 20 embryos in each germination media type. The germination boxes were placed in a germination room and grown for two weeks under 50-70 μmol m^−2s^−1 photosynthetic photon flux of 16-hour photoperiod at an air temperature of 23° C. The germinants were then harvested and assessed for germination rates, hyperhydricity rates, shoot and root length. Germination was defined as germinants having a root longer than 2 mm, and elongated hypercotyl. Hyperhydricity was defined by the thickening of hypercotyl and watery appearance of the germinants, whether germinated or not germinated.
# [2] = test system: interior spruce somatic embryos; assay: Elevated sucrose levels (4-10% w/v) and extended nutripriming (3-5 days): ex vitro germination and growth of interior spruce genotypes 5-1378 and 107-2049; type: in vivo, Picea glauca (Moench) Voss x P. engelmannii Parry ex Engelm.
# Experimental: Mature somatic embryos of interior spruce (Picea glauca (Moench) Voss x P. engelmannii Parry ex Engelm.) genotypes 5-1378 and 107-2049 t were desiccated with the HRHT treatment and stored at 4° C. Embryos were subsequently removed from storage and nutriprimed for one of 3, 4, or 5 days periods as previously described in ½ m24GMD liquid medium containing one of the following sucrose concentrations; 4, 6, 8, and 10% (all w/v). After the nutripriming treatments were completed, the embryos were sown ex vitro onto a peat-based polymer-bound horticultural growing substrate in 504-cell (4 ml/cell) styrofoam miniplug trays (Grow-Tech Inc., San Bautista, Calif.). The sown trays were then placed into a conventional non-sterile horticulture germination chamber in an environment-controlled growth room. The environmental conditions were 22-24° C. air temperature, 80-100% RH, 0.10-0.15% CO2, and a 16-hr photoperiod with 40-120 μmol m^−2s^−1 photosynthetic photon flux. Immediately after the trays containing ex vitro sown nutriprimed embryos were placed into the non-sterile germination chamber, they were misted with a ½ m24GMD nutrient solution amended with 3% w/v sucrose solution until the surfaces of the non-sterile growing substrates were well-wetted. Subsequently, the trays were misted with this solution daily for a 3-week germination period. Aseptic techniques or conditions were not used for application of the nutrient solutions, nor for the germination environment during the 2-week culture period. Furthermore, prophylactic applications of 0.1 g/l benlate, 0.05 g/l ampicillin plus 0.05 g/l penicillin G (or 0.1 ampicillin), and 5 ml/l Gnatrol® were applied at 5-day intervals to control fungi, bacteria, and fungus fly larvae.
# [3] = germination media m24GMD (without sucrose), osmoticant levels as E220
# [4] = germination media m24GMD plus 3% sucrose, osmoticant in m24GMD priming solution (w/v): 1% betaine, 1.65% fructose, glucose, mannitol, sorbitol, 3% lactose, maltose, sucrose, 10% PEG 4000, 72 hrs
# [5] = germination media m24GMD plus 3% sucrose, osmoticant levels as E220
# [6] = genotype 5-1378, 3% sucrose in nutripriming solution, 3 days priming
# [7] = genotype 5-1378, 4% sucrose in nutripriming solution, 3 days priming
# [8] = genotype 5-1378, 4% sucrose in nutripriming solution, 4 days priming
# [9] = genotype 5-1378, 4% sucrose in nutripriming solution, 5 days priming
# [10] = genotype 5-1378, 6% sucrose in nutripriming solution, 3 days priming
# [11] = genotype 5-1378, 6% sucrose in nutripriming solution, 4 days priming
# [12] = genotype 5-1378, 6% sucrose in nutripriming solution, 5 days priming
# [13] = genotype 5-1378, 8% sucrose in nutripriming solution, 3 days priming
# [14] = genotype 5-1378, 8% sucrose in nutripriming solution, 4 days priming
# [15] = genotype 5-1378, 8% sucrose in nutripriming solution, 5 days priming
# [16] = genotype 5-1378, 10% sucrose in nutripriming solution, 3 days priming
# [17] = genotype 5-1378, 10% sucrose in nutripriming solution, 4 days priming
# [18] = genotype 5-1378, 10% sucrose in nutripriming solution, 5 days priming
# [19] = genotype 107-2049, 3% sucrose in nutripriming solution, 3 days priming
# [20] = genotype 107-2049, 4% sucrose in nutripriming solution, 3 days priming
# [21] = genotype 107-2049, 4% sucrose in nutripriming solution, 4 days priming
# [22] = genotype 107-2049, 4% sucrose in nutripriming solution, 5 days priming
# [23] = genotype 107-2049, 6% sucrose in nutripriming solution, 3 days priming
# [24] = genotype 107-2049, 6% sucrose in nutripriming solution, 4 days priming
# [25] = genotype 107-2049, 6% sucrose in nutripriming solution, 5 days priming
# [26] = genotype 107-2049, 8% sucrose in nutripriming solution, 3 days priming
# [27] = genotype 107-2049, 8% sucrose in nutripriming solution, 4 days priming
# [28] = genotype 107-2049, 8% sucrose in nutripriming solution, 5 days priming
# [29] = genotype 107-2049, 10% sucrose in nutripriming solution, 3 days priming
# [30] = genotype 107-2049, 10% sucrose in nutripriming solution, 4 days priming
# [31] = genotype 107-2049, 10% sucrose in nutripriming solution, 5 days priming
molecule,measurement,setting,value
OC[C@@H](O)[C@@H](O)[C@H](O)[C@@H](O)CO [sorbitol],Germination %,[1]; [3],5.0 ± 5.0%
same,Root length,[1]; [3],0.4 ± 0.1 mm
same,Shoot length,[1]; [3],10.7 ± 0.3 mm
same,Germination %,[1]; [4],100%
same,Root length,[1]; [5],15.5 ± 1.0 mm
same,Shoot length,[1]; [5],14.5 ± 0.4 mm
same,% with hyperhydricity,[1],92.6 ± 6.0%
OC[C@H]1O[C@@](CO)(O[C@H]2O[C@H](CO)[C@@H](O)[C@H](O)[C@H]2O)[C@@H](O)[C@@H]1O [sucrose],Germination %,[1]; [3],91.7 ± 8.3%
same,Root length,[1]; [3],2.4 ± 0.1 mm
same,Shoot length,[1]; [3],14.7 ± 0.3 mm
same,Germination %,[1]; [4],100%
same,Root length,[1]; [5],11.6 ± 0.9 mm
same,Shoot length,[1]; [5],18.1 ± 0.4 mm
same,% with hyperhydricity,[1],40.0 ± 23.2%
same,Germination %,[2]; [6],83.3 ± 8.8%
same,Rooting %,[2]; [6],73.3 ± 8.8%
same,Germination %,[2]; [7],98.3 ± 1.7%
same,Rooting %,[2]; [7],86.7 ± 7.3%
same,Germination %,[2]; [8],96.7 ± 3.3%
same,Rooting %,[2]; [8],91.7 ± 4.4%
same,Germination %,[2]; [9],96.5 ± 1.8%
same,Rooting %,[2]; [9],91.5 ± 6.0%
same,Germination %,[2]; [10],91.7 ± 4.4%
same,Rooting %,[2]; [10],86.7 ± 3.3%
same,Germination %,[2]; [11],96.7 ± 3.3%
same,Rooting %,[2]; [11],90.0 ± 2.9%
same,Germination %,[2]; [12],98.3 ± 1.7%
same,Rooting %,[2]; [12],88.3 ± 4.4%
same,Germination %,[2]; [13],91.7 ± 4.4%
same,Rooting %,[2]; [13],66.7 ± 12.0%
same,Germination %,[2]; [14],100%
same,Rooting %,[2]; [14],91.7 ± 3.3%
same,Germination %,[2]; [15],95.0 ± 5.0%
same,Rooting %,[2]; [15],86.7 ± 8.3%
same,Germination %,[2]; [16],84.7 ± 2.9%
same,Rooting %,[2]; [16],52.5 ± 7.2%
same,Germination %,[2]; [17],100%
same,Rooting %,[2]; [17],88.3 ± 6.0%
same,Germination %,[2]; [18],98.3 ± 1.7%
same,Rooting %,[2]; [18],91.7 ± 4.4%
same,Germination %,[2]; [19],91.7 ± 4.4%
same,Rooting %,[2]; [19],68.3 ± 6.0%
same,Germination %,[2]; [20],90.0 ± 5.0%
same,Rooting %,[2]; [20],71.7 ± 8.8%
same,Germination %,[2]; [21],84.6 ± 6.2%
same,Rooting %,[2]; [21],62.3 ± 13.0%
same,Germination %,[2]; [22],93.3 ± 6.7%
same,Rooting %,[2]; [22],76.2 ± 4.5%
same,Germination %,[2]; [23],81.7 ± 3.3%
same,Rooting %,[2]; [23],66.7 ± 3.3%
same,Germination %,[2]; [24],85.8 ± 2.2%
same,Rooting %,[2]; [24],69.6 ± 6.1%
same,Germination %,[2]; [25],86.7 ± 3.3%
same,Rooting %,[2]; [25],70.0 ± 0.0%
same,Germination %,[2]; [26],76.7 ± 4.4%
same,Rooting %,[2]; [26],51.7 ± 4.4%
same,Germination %,[2]; [27],93.3 ± 4.4%
same,Rooting %,[2]; [27],88.3 ± 4.4%
same,Germination %,[2]; [28],93.3 ± 4.4%
same,Rooting %,[2]; [28],60.0 ± 0.0%
same,Germination %,[2]; [29],81.7 ± 6.7%
same,Rooting %,[2]; [29],36.7 ± 10.1%
same,Germination %,[2]; [30],90.0 ± 7.6%
same,Rooting %,[2]; [30],76.7 ± 8.3%
same,Germination %,[2]; [31],86.7 ± 1.7%
same,Rooting %,[2]; [31],51.7 ± 12.0%
polyethylene glycol (PEG) 4000 [PEG 4000],% with hyperhydricity,[1],97.5 ± 4.3%
